Tested on: Ileum
Experiment: Spasmolytic activity in guinea pig ileum assessed as blockade of muscle contractions at 25 ug
Type: functional, Cavia porcellus

For `COc1cc2c3c(c1OC)C1(C=CC(=O)C=C1)C[C@H]3N(C)CC2.Cl` [PRONUCIFERINE HYDROCHLORIDE], the Activity was 75%.

Source: ChEMBL document CHEMBL1151397, “The Alkaloids of Stephania glabra” (1982)
